US20230357210A1, “NITROGEN-CONTAINING CONDENSED HETEROCYCLIC COMPOUND HAVING AN OXIME GROUP, AGRICULTURAL OR HORTICULTURAL HERBICIDE COMPRISING THE COMPOUND, AND METHOD FOR USING THE COMPOUND OR THE HERBICIDE” (NIHON NOHYAKU CO., LTD., priority 2020, published 2023)

melting point [°C]	SMILES
195 to 196	CCO/N=C/c1ccc(C(=O)O)c(-c2nc3cc(SC(F)(F)F)ccc3n2C)n1 [2-81, 6-[(E)-ethoxyiminomethyl]-2-[1-methyl-5-(trifluoromethylthio)benzimidazol-2-yl]pyridine-3-carboxylic acid]
118 to 119	CCO/N=C/c1ccc(C(=O)N(C)C)c(-c2nc3cc(SC(F)(F)F)ccc3n2C)n1 [2-95, 6-[(E)-ethoxyiminomethyl]-N,N-dimethyl-2-[1-methyl-5-(trifluoromethylthio)benzimidazol-2-yl]pyridine-3-carboxamide]
121 to 122	CCO/N=C(\C)c1ccc(C(=O)OC)c(-c2nc3cc(SC(F)(F)F)ccc3n2C)n1 [2-105, 6-[(E)-N-ethoxy-C-methyl-carbonimidoyl]-2-[1-methyl-5-(trifluoromethylthio)benzimidazol-2-yl]pyridine-3-carboxylic acid methyl ester]
46 to 47	CCON=C(N)c1ccc(C(=O)OC)c(-c2nc3cc(C(F)(F)F)ccc3n2C)n1 [2-123, N′-ethoxy-5-methoxycarbonyl-6-[1-methyl-5-(trifluoromethyl)benzimidazol-2-yl)pyridine-2-carboxamidine]
144 to 145	CCON=C(N)c1cc(C)c(Cl)c(-c2nc3cc(C(F)(F)F)ccc3n2C)n1 [3-65, 5-chloro-N′-ethoxy-4-methyl-6-[1-methyl-5-(trifluoromethyl)benzimidazol-2-yl]pyridine-2-carboxamidine]
246 to 247	CCON=C(N)c1cc(C)c(S(C)(=O)=O)c(-c2nc3cc(C(F)(F)F)ccc3n2C)n1 [3-70, N′-ethoxy-4-methyl-5-methylsulfonyl-6-[1-methyl-5-(trifluor omethyl)benzimidazol-2-yl]pyridine-2-carboxamidine]
244 to 246	CCO/N=C(\N)c1cnc(S(=O)(=O)NC)c(-c2nc3cc(C(F)(F)F)ccc3n2C)n1 [7-46, (Z)-N′-ethoxy-6-(1-methyl-5-(trifluoromethyl)-1H-benzo[d]imidazol-2-yl)-5-(N-methylsulfamoyl)pyrazine-2-carboximidamide]
222 to 223	CCO/N=C(\N)c1ncc(S(=O)(=O)NC)c(-c2nc3ccccc3n2C)n1 [8-6, (Z)-N′-ethoxy-4-(1-methyl-1H-benzo[d]imidazol-2-yl)-5-(N-methylsulfamoyl)pyrimidine-2-carboximidamide]

Second part, the compound before the results:

SMILES	melting point [°C]
CCON=C(N)c1ccc(S(C)(=O)=O)c(-c2nc3cc(C(F)(F)F)ccc3n2C)n1 [1-205, N′-ethoxy-5-methylsulfonyl-6-[1-methyl-5-(trifluoromethyl)benzimidazol-2-yl]pyridine-2-carboxamidine]	149 to 150
CCON=C(N)c1ccc(S(=O)(=O)NC)c(-c2nc3cc(C(F)(F)F)ccc3n2C)n1 [1-210, N′-ethoxy-5-methylsulfamoyl-6-[1-methyl-5-(trifluoromethyl)benzimidazol-2-yl)pyridine-2-carboxamidine]	173 to 174
CCON=C(NC)c1ccc(S(C)(=O)=O)c(-c2nc3cc(C(F)(F)F)ccc3n2C)n1 [1-216, N′-ethoxy-N-methyl-5-methylsulfonyl-6-[1-methyl-5-(trifluor omethyl)benzimidazol-2-yl]pyridine-2-carboxamidine]	154 to 155
CCON=C(c1ccc(S(C)(=O)=O)c(-c2nc3cc(C(F)(F)F)ccc3n2C)n1)N(C)C [1-220, N′-ethoxy-N,N-dimethyl-5-methylsulfonyl-6-[1-methyl-5-(trifluoromethyl)benzimidazol-2-yl)pyridine-2-carboxamidine]	150 to 151
